Data published in publication PMC11231610, “Fatty acid binding to the human transport proteins FABP3, FABP4, and FABP5 from a Ligand’s perspective” (The Journal of Biological Chemistry, 2024).
Several values for one entry are separate records, joined by “and”; a condition that tells them apart may be missing. Equal entries are not always repeated.

What was measured:
[1] = biological target: T1, FABP5 (Homo sapiens, UniProt Q01469); assay: DHA displacement of 16-DSA from FABP5 by CW EPR; type: binding; settings: FABP5/16-DSA/DHA up to 20/20/100
T1 construct: purchased Sigma Aldrich
Description: In a second addition during revision, we were curious about the question of whether our model ligands that bind with medium affinity to the FABP binding pocket will be displaced when we add a native ligand with higher affinity and whether we could detect this displacement with our CW EPR setup. The native ligand DHA was chosen for this displacement analysis since it is well-known to bind with high affinity to FABP5 ([26]). DHA was pre-dissolved in ethanol, diluted into buffer, and mixed with FABP5 and 16-DSA. […] Samples with FABP5/16-DSA/DHA ratios 20/20/0, 20/20/5, 20/20/10, 20/20/20, 20/20/50, and 20/20/100 were prepared with 5 min incubation time in between 16-DSA and DHA addition. […] We assume that the well-known high binding affinity of DHA refers to the state of strong binding within the pocket. […] Instead, a dynamic exchange of ligands seems to occur, as we consistently observe it with albumins from different species. However, this part opens the way to other future competitive binding assays via CW EPR spectroscopy, e.g., with pharmaceuticals that bind to FABPs.
CW EPR spectroscopic measurements were performed at X-band frequencies (∼9.4 GHz) with a benchtop spectrometer Magnettech MS-5000 (Freiberg Instruments GmbH, now Bruker Biospin). The samples were prepared in low-binding PCR tubes (250 μl). Protein and 5/16-DSA solutions were mixed with HEPES/NaCl buffer at pH 7.5, to obtain samples with a constant 5/16-DSA concentration of 20 μM and varying FABP concentrations of 200, 100, 50, 35, 25, 20, 15, 10 and 5 μM. After an incubation time of 20 min, the samples were transferred into glass capillaries, which were sealed with ‘Critoseal’. At first, solutions with 20 μM of 5/16-DSA were measured as references at 37 °C. The concentration series of FABP with 20 μM 5/16-DSA were measured at 37 °C, directly after preparation. Afterward, the sample capillaries were stored at 4 °C, and subsequent temperature-dependent measurements were performed. […]

[2] = biological target: T2, FABP3 (Homo sapiens, UniProt P05413); assay: CW EPR spectra and spectral simulations of spin-probed fatty acids with FABP3; type: binding
T2 construct: purchased Sigma Aldrich
Method: (§1) For a more in-depth view of the binding mechanism, CW EPR spectra of 5/16-DSA with concentration series of the FABPs were measured and simulated. […] Equal concentrations of 20 μM of each spin probe (5- and 16-DSA) were mixed with FABP concentrations of 0 to 200 μM, increasing the resulting ligand/protein ratio in the samples stepwise from 1/0 to 1/10.
(§2) To analyze the spectra quantitatively, subsequent EPR spectral simulations were performed (Fig. 2, B and C). […] For a better understanding, a first interpretation of these components is given at this point. The rotational dynamics are thought to be indirectly proportional to the strength of intermolecular interactions between fatty acid and FABP. Therefore, they are indicative of the binding state of the fatty acids. Higher rotational correlation times signalize lower ligand dynamics and stronger interactions with the protein. […] This exchange broadening can only occur if radicals are located very close distance each other, colliding with each other, leading to partial overlap of spin-bearing orbitals.
(§3) The fractions (weights) Φx of the spectral components were extracted from the EPR simulations of the concentration series and were used to calculate the concentrations of all components with Eq (1). in Figure 3. This was performed for the intermediately and strongly bound components, as well as for their sum, called totally bound 5/16-DSA, to construct binding curves for all FABPs and spin probes. […] Different fit functions were applied to the curves for a better qualitative and quantitative analysis.

[3] = biological target: T1, FABP5; assay: CW EPR spectra and spectral simulations of spin-probed fatty acids with FABP5; type: binding
Method: as §1, §2, §3

[4] = biological target: T3, FABP4 (Homo sapiens, UniProt P15090); assay: CW EPR spectra and spectral simulations of spin-probed fatty acids with FABP4; type: binding; settings: 37 °C
T3 construct: purchased Sigma Aldrich
Method: as §1, §2, §3

[5] = biological target: FABPs; design: method as in PMID 11461829; settings: moderate to high binding affinities of FABPs, ref [2]; cited from earlier work
[6] = biological target: T3, FABP4; assay: MST binding of fluorescent fatty acids to FABP4
Method: (§4) FABPs are known to bind more hydrophobic ligands with higher affinity ([1]).
(§5) Microscale thermophoresis (MST) experiments were carried out on a Monolith NT.115 MST device (NanoTemper Technologies GmbH). […] […] In order to minimize the effect of protein aggregation, 0.05 Vol-% of Tween 20 (NanoTemper Technologies GmbH) were added to the HEPES/NaCl buffer solution. Samples were prepared in low-binding Eppendorf tubes. The influence of photobleaching on the quantum yield was reduced by using freshly diluted fluorophore solutions and storing the samples under the exclusion of light during the incubation time of 10 min. The samples were loaded into premium capillaries (NanoTemper Technologies GmbH). The coated capillary surface is designed to avoid the adhesion of molecules. Initially, repeated pre-tests without protein but with different fluorophore concentrations were carried out. This was done to find the optimum concentration and excitation power and to check the fluorescence activity of the fluorophores. The fluorescence intensity had to be in the range of 300 to 600 counts, with preferably smooth MST traces. For binding affinity measurements, the concentration of the fluorescent fatty acid was held constant at 80 nM, while the non-labeled FABPs were used at variable concentrations in a dilution series. The power of the IR laser was held constant at a medium set for all measurements, generating a constant temperature gradient. The measurements were performed as duplicates, using the software MO. Control (version 1.6) and afterward analyzed with the software MO. Affinity Analysis (version 2.3) (NanoTemper Technologies GmbH). The mean fluorescence intensities at the start time were divided by the values at the end time of the MST traces and normalized, obtaining the MST signal Fnorm. For all analyses, the end time was manually set to 1.5 s after the start of the heating process. Fnorm was normalized for the amplitude and baseline corrected to obtain the bound fraction.

[7] = biological target: T2, FABP3; assay: MST binding of fluorescent fatty acids to FABP3
Method: as §4, §5

[8] = biological target: T1, FABP5; assay: MST binding of fluorescent fatty acids to FABP5
Method: as §4, §5

[9] = 37 °C, 20 μM spin probe, EPR binding curve, read-out: KD,T,75′ (fit), apparent KD read at 75% totally bound
[10] = Fig. 2B, 20 μM 5-DSA with 100 μM FABP3
[11] = Hill fit of EPR binding curve, totally bound, 37 °C
[12] = Hill fit, totally bound (T), y = bound 5/16-DSA
[13] = read-out: KD,T,50′ (fit), apparent KD read at 50% totally bound, 37 °C, 20 μM spin probe, EPR binding curve
[14] = 80 nM rhodamine-PA, HEPES/NaCl pH 7.5 with 0.05 Vol-% Tween 20

T1 sequence (Q01469 whole entry): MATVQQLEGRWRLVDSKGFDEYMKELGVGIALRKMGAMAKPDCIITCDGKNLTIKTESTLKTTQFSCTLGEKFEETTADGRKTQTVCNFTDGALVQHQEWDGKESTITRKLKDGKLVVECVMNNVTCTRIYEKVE
T3 sequence (P15090 whole entry): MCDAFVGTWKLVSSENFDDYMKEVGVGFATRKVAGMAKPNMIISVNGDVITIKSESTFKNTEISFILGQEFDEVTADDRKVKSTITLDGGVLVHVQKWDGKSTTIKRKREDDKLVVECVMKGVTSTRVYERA
T2 sequence (P05413 whole entry): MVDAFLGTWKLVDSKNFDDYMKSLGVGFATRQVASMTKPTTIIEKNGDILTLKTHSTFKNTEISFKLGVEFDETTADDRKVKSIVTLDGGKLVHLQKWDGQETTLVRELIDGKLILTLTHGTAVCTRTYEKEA

CC/C=C\C/C=C\C/C=C\C/C=C\C/C=C\C/C=C\CCC(=O)O [DHA, Cis-4,7,10,13,16,19-Docosahexaenoic acid]
bound 16-DSA with rising DHA content [1]: 55% | displacement of 16-DSA [1]: no complete displacement of 16-DSA occurred

CCCCCCCCCCCCCC1(CCCC(=O)O)OCC(C)(C)N1[O] (centres unmarked) [5-DSA, 5-DOXYL stearic acid]
Kd ([2]; 37 °C, 20 μM FABP3, 20 μM spin probe, read-out: KD,T,20μM (calculated, totally bound)): 0.82 ± 0.65 µM | Kd [2, 9]: 17.4 ± 0.2 µM | Kd ([2]; 37 °C, 50 μM FABP3, 20 μM spin probe, read-out: KD,T,50μM (calculated, totally bound)): 2.44 ± 1.87 µM | ΔGF−I,100μM (free to intermediately bound) ([2]; 37 °C, 100 μM FABP3): -6.84 ± 0.22 kcal/mol | ΔGF−S,100μM (free to strongly bound) ([2]; 37 °C, 100 μM FABP3): -4.4 ± 0.048 kcal/mol | ΔGF−T,100μM (free to totally bound) ([2]; 37 °C, 100 μM FABP3): -8.08 ± 0.813 kcal/mol | ΔGI−S,100μM (intermediately to strongly bound) ([2]; 37 °C, 100 μM FABP3): 1.27 ± 0.072 kcal/mol | Kd ([2]; 37 °C, 100 μM FABP3, 20 μM spin probe, read-out: KD,T,100μM (calculated, totally bound)): 2.06 ± 2.68 µM | aiso, component (1) free ([2]; 37 °C, EPR simulation): 44.1 MHz | aiso, component (2) intermediately bound ([2]; 37 °C, EPR simulation): 42.9 MHz | aiso, component (3) strongly bound ([2]; 37 °C, EPR simulation): 41.3 MHz | τc,iso, component (1) free ([2]; 37 °C, EPR simulation): 0.1 ns | τc,iso, component (2) intermediately bound ([2]; 37 °C, EPR simulation): 4.8–4.9 ns | τc,iso, component (3) strongly bound ([2]; 37 °C, EPR simulation): 17.9–19 ns | bound molecules at complete saturation ([2]; 37 °C, tenfold protein excess, totally bound): 100% | rotational correlation time τc, component (1) [2, 10]: 0.1 ns | rotational correlation time τc, component (3) [2, 10]: 17.8 ns | Hill coefficient n [2, 11]: 1.898 and > 1 | Hill fit k ([2]; Hill fit, totally bound (T), x = c(FABP3)/c(5/16-DSA)): 0.475 ± 0.019 | Hill fit Vmax [2, 12]: 98.766 ± 1.7 | Kd [2, 13]: 9.6 ± 0.1 µM | Kd ([3]; 37 °C, 20 μM FABP5, 20 μM spin probe, read-out: KD,T,20μM (calculated, totally bound)): 2.05 ± 0.5 µM | Kd [3, 9]: 25 ± 0.3 µM | Kd ([3]; 37 °C, 50 μM FABP5, 20 μM spin probe, read-out: KD,T,50μM (calculated, totally bound)): 5.82 ± 1.14 µM | ΔGF−I,100μM (free to intermediately bound) ([3]; 37 °C, 100 μM FABP5): -6.14 ± 0.048 kcal/mol | ΔGF−S,100μM (free to strongly bound) ([3]; 37 °C, 100 μM FABP5): -4.97 ± 0.024 kcal/mol | ΔGF−T,100μM (free to totally bound) ([3]; 37 °C, 100 μM FABP5): -7.24 ± 0.19 kcal/mol | ΔGI−S,100μM (intermediately to strongly bound) ([3]; 37 °C, 100 μM FABP5): 0.621 ± 0.024 kcal/mol | Kd ([3]; 37 °C, 100 μM FABP5, 20 μM spin probe, read-out: KD,T,100μM (calculated, totally bound)): 7.79 ± 0.37 µM | aiso, component (1) free ([3]; 37 °C, EPR simulation): 44.1 MHz | aiso, component (2) intermediately bound ([3]; 37 °C, EPR simulation): 44.9–46.9 MHz | aiso, component (3) strongly bound ([3]; 37 °C, EPR simulation): 42.3–43.7 MHz | τc,iso, component (1) free ([3]; 37 °C, EPR simulation): 0.09–0.1 ns | τc,iso, component (2) intermediately bound ([3]; 37 °C, EPR simulation): 4.8 ns | τc,iso, component (3) strongly bound ([3]; 37 °C, EPR simulation): 17.9 ns | totally bound fraction ([3]; 37 °C, high FABP5 excess): 94.8% | Hill coefficient n [3, 11]: 1.109 ± 0.041 and ≈ 1 | Hill fit k ([3]; Hill fit, totally bound (T), x = c(FABP5)/c(5/16-DSA)): 0.352 ± 0.009 | Hill fit Vmax [3, 12]: 96.295 ± 0.907 | Kd [3, 13]: 6.6 ± 0.1 µM | Kd ([4]; 20 μM FABP4, 20 μM spin probe, read-out: KD,T,20μM (calculated, totally bound)): 20.8 ± 0.8 µM | Kd ([4]; 20 μM spin probe, EPR binding curve, read-out: KD,T,75′ (fit), apparent KD read at 75% totally bound): 66 ± 0.7 µM | Kd ([4]; 50 μM FABP4, 20 μM spin probe, read-out: KD,T,50μM (calculated, totally bound)): 25.3 ± 1 µM | ΔGF−I,100μM (free to intermediately bound) ([4]; 100 μM FABP4): -6.19 ± 0.096 kcal/mol | ΔGF−S,100μM (free to strongly bound) ([4]; 100 μM FABP4): -4.85 ± 0.024 kcal/mol | ΔGF−T,100μM (free to totally bound) ([4]; 100 μM FABP4): -7.12 ± 0.263 kcal/mol | ΔGI−S,100μM (intermediately to strongly bound) ([4]; 100 μM FABP4): 0.741 ± 0.048 kcal/mol | Kd ([4]; 100 μM FABP4, 20 μM spin probe, read-out: KD,T,100μM (calculated, totally bound)): 9.53 ± 0.53 µM | aiso, component (1) free ([4]; EPR simulation): 44.1 MHz | aiso, component (2) intermediately bound ([4]; EPR simulation): 46.9 MHz | aiso, component (3) strongly bound ([4]; EPR simulation): 43.0 MHz | τc,iso, component (1) free ([4]; EPR simulation): 0.06–0.08 ns | τc,iso, component (2) intermediately bound ([4]; EPR simulation): 4.8 ns | τc,iso, component (3) strongly bound ([4]; EPR simulation): 17.9 ns | Hill coefficient n ([4]; Hill fit of EPR binding curve, totally bound): > 1 | Kd ([4]; read-out: KD,T,50′ (fit), apparent KD read at 50% totally bound, 20 μM spin probe, EPR binding curve): 31.6 ± 0.3 µM

CCCCCCCC/C=C\CCCCCCCC(=O)O [oleic acid]
Kd [5]: 0.44 to 1.56 µM

CCN(CC)c1ccc2c(-c3ccc(S(=O)(=O)NCCCCCCCCCCCCCCCC(=O)O)cc3S(=O)(=O)[O-])c3ccc(=[N+](CC)CC)cc-3oc2c1 [rhodamine-PA, [16-N-(lissamine rhodamine ß sulfonyl)amino] palmitic acid]
lnKA [6]: 11.46 ± 0.18 | Kd ([6]; 80 nM rhodamine-PA, FABP4 handled in water): 10.5 ± 2.1 µM | ΔGm,A (molar Gibbs energy of association) ([6]; at 22 °C, van't Hoff equation): -6.72 ± 0.105 kcal/mol | lnKA [7]: 12.56 ± 0.11 | Kd [7, 14]: 3.5 ± 0.4 µM | ΔGm,A (molar Gibbs energy of association) ([7]; at 22 °C, van't Hoff equation): -7.36 ± 0.0645 kcal/mol | lnKA [8]: 11.7 ± 0.08 | Kd [8, 14]: 8.3 ± 0.7 µM | ΔGm,A (molar Gibbs energy of association) ([8]; at 22 °C, van't Hoff equation): -6.86 ± 0.048 kcal/mol
